Measured values as given in patent publication US12545674B2, “Crystal of trifluoromethyl/chloro disubstituted sulfonamide selective BCL-2 inhibitor” (priority 2020, dated 2026).

How the values were obtained:
[1] = Hygroscopicity test (Chinese Pharmacopoeia General Chapter 9103); assay type: physicochemical; details: 25° C.±1° C., relative humidity 80%±2%, 24 h
Description: For the method and conditions of the hygroscopicity test, please refer to the “Guidelines for the Hygroscopicity Test of Drugs” (General Chapter 9103, Chinese Pharmacopoeia, Volume IV, 2015 Edition). Hygroscopicity refers to the capability or degree of a substance for absorbing water in certain temperature and humidity conditions. The test samples were solid drug substances meeting the specifications, and the test results may be used as a reference for selection of suitable drug packaging and storage conditions. • (1) A dried glass weighing bottle with a plug (outer diameter: 50 mm; height: 15 mm) was taken and placed in a suitable thermostatic dryer (with saturated ammonium chloride or ammonium sulfate solution placed in the lower part) at 25° C.±1° C. or an artificial climate box (with a set temperature at 25° C.±1° C. and relative humidity at 80%±2%) on the day before the test, and the weight (m1) was precisely measured. • (2) An appropriate amount of test sample was taken and spread in the above weighing bottle, with the thickness of the test sample being about 1 mm in general, and the weight (m2) was precisely measured. • (3) The weighing bottle was opened and placed in the above conditions at constant temperature and humidity for 24 h together with the cap. • (4) The weighing bottle was capped, and the weight (m3) was precisely measured.

[2] = Stability test of crystalline forms (high temperature, high humidity, irradiation; HPLC purity and crystal form); assay type: physicochemical
Method: Test samples were put into an open and proper clean container, and left to stand at 60° C. for 10 days. Samples were collected on day 5 and day 10;
Test samples were put into a closed humid container, and left to stand at 92.5%±5% RH/25° C. for 10 days. Samples were collected on day 5 and day 10;
Test samples were put into a lighting box or other suitable lighting devices (open) with fluorescent lamps at 4500 1×±500 1× for 10 days. Samples were collected on day 5 and day 10.
In the three conditions, the purity of the product and the contents of related substances were detected after the test samples were placed in the experimental conditions. • Instrument: Thermo U3000 high-performance liquid chromatography; • Detector: thermo VWD-3100 UV absorption detector/DAD-3000 diode array detector; • Chromatographic column: XSelect CSH C18 (4.6×150 mm, 3.5 μm); • Injection volume: 10 μL; detection wavelength: 280 nm; flow rate: 1.0 mL/min; column temperature: 30° C.; • Mobile phase: phase A: 0.1% of aqueous formic acid solution, phase B: acetonitrile, gradient elution; • Preparation of sample solution: An appropriate amount of the product was precisely, and dissolved in methanol. The solution was quantitatively diluted to obtain a solution containing about 0.5 mg per 1 mL as a test solution.

[3] = High humidity 92.5 ± 5% RH/25° C., Day 0
[4] = High humidity 92.5 ± 5% RH/25° C., Day 5
[5] = High humidity 92.5 ± 5% RH/25° C., Day 10
[6] = High temperature 60° C., open container, Day 0
[7] = High temperature 60° C., open container, Day 5
[8] = High temperature 60° C., open container, Day 10
[9] = Irradiation 4500 ± 500 lx, Day 0
[10] = Irradiation 4500 ± 500 lx, Day 5
[11] = Irradiation 4500 ± 500 lx, Day 10

| SMILES | Hygroscopic weight gain [1] | Purity [2, 3] | Purity [2, 4] | Purity [2, 5] | Purity [2, 6] | Purity [2, 7] | Purity [2, 8] | Purity [2, 9] | Purity [2, 10] | Purity [2, 11] | Crystalline form [2, 3] | Crystalline form [2, 4] | Crystalline form [2, 5] | Crystalline form ([2]; High temperature 60° C., Day 0) | Crystalline form ([2]; High temperature 60° C., Day 5) | Crystalline form ([2]; High temperature 60° C., Day 10) | Crystalline form [2, 9] | Crystalline form [2, 10] | Crystalline form [2, 11] |
| --- | --- | --- | --- | --- | --- | --- | --- | --- | --- | --- | --- | --- | --- | --- | --- | --- | --- | --- | --- |
| CC1(C)CCC(CN2CCN(c3ccc(C(=O)NS(=O)(=O)c4ccc(NC[C@H]5COCCO5)c([N+](=O)[O-])c4)c(Oc4cnc5[nH]ccc5c4)c3)CC2)=C(c2ccc(C(F)(F)F)cc2Cl)C1 [Crystalline form A] | 1.38 wt % | 97.92% | 97.84% | 97.91% | 97.92% | 97.41% | 97.17% | 97.92% | 97.07% | 96.62% |  |  |  |  |  |  |  |  |  |
| CC1(C)CCC(CN2CCN(c3ccc(C(=O)NS(=O)(=O)c4ccc(NC[C@H]5COCCO5)c([N+](=O)[O-])c4)c(Oc4cnc5[nH]ccc5c4)c3)CC2)=C(c2ccc(C(F)(F)F)cc2Cl)C1 [Crystalline form E] | 0.11 wt % | 98.02% |  | 97.89% | 98.02% |  | 97.88% | 98.02% |  | 97.71% |  |  |  |  |  |  |  |  |  |
| CC1(C)CCC(CN2CCN(c3ccc(C(=O)NS(=O)(=O)c4ccc(NC[C@H]5COCCO5)c([N+](=O)[O-])c4)c(Oc4cnc5[nH]ccc5c4)c3)CC2)=C(c2ccc(C(F)(F)F)cc2Cl)C1 [Crystalline form H] | 0.25 wt % |  |  |  |  |  |  |  |  |  |  |  |  |  |  |  |  |  |  |
| CC1(C)CCC(CN2CCN(c3ccc(C(=O)NS(=O)(=O)c4ccc(NC[C@H]5COCCO5)c([N+](=O)[O-])c4)c(Oc4cnc5[nH]ccc5c4)c3)CC2)=C(c2ccc(C(F)(F)F)cc2Cl)C1 [Crystalline form F] | 0.76 wt % |  |  |  |  |  |  |  |  |  |  |  |  |  |  |  |  |  |  |
| CC1(C)CCC(CN2CCN(c3ccc(C(=O)NS(=O)(=O)c4ccc(NC[C@H]5COCCO5)c([N+](=O)[O-])c4)c(Oc4cnc5[nH]ccc5c4)c3)CC2)=C(c2ccc(C(F)(F)F)cc2Cl)C1 [Crystalline form C] | 0.11 wt % | 98.56% | 98.70% | 98.64% | 98.56% | 98.25% | 97.31% | 98.56% | 98.45% | 98.15% |  |  |  |  |  |  |  |  |  |
| CC1(C)CCC(CN2CCN(c3ccc(C(=O)NS(=O)(=O)c4ccc(NC[C@H]5COCCO5)c([N+](=O)[O-])c4)c(Oc4cnc5[nH]ccc5c4)c3)CC2)=C(c2ccc(C(F)(F)F)cc2Cl)C1 [Crystalline form B] | 0.30 wt % | 98.44% | 98.45% | 98.36% | 98.44% | 98.34% | 98.22% | 98.44% | 98.22% | 97.68% |  |  |  |  |  |  |  |  |  |
| CC1(C)CCC(CN2CCN(c3ccc(C(=O)NS(=O)(=O)c4ccc(NC[C@H]5COCCO5)c([N+](=O)[O-])c4)c(Oc4cnc5[nH]ccc5c4)c3)CC2)=C(c2ccc(C(F)(F)F)cc2Cl)C1 [Crystalline form D] | 0.75 wt % |  |  |  |  |  |  |  |  |  |  |  |  |  |  |  |  |  |  |
| CC1(C)CCC(CN2CCN(c3ccc(C(=O)NS(=O)(=O)c4ccc(NC[C@H]5COCCO5)c([N+](=O)[O-])c4)c(Oc4cnc5[nH]ccc5c4)c3)CC2)=C(c2ccc(C(F)(F)F)cc2Cl)C1 [Amorphous form] |  | 97.91% | 97.85% | 97.89% | 97.91% | 97.51% | 97.33% | 97.91% | 95.96% | 93.83% | Amorphous | Amorphous | Amorphous | Amorphous | Amorphous | Amorphous | Amorphous | Amorphous | Amorphous |
